Assay results taken from patent US7625917B2, “Thiolesters and uses thereof” (priority 1998, dated 2009).
Entries after “also recorded” stand apart in the source; their conditions may differ.

What was measured:
[1] = molecular target: T1, recombinant HIV-1 NCp7 protein (Human immunodeficiency virus type 1 group M subtype B, UniProt P03347); assay: Trp37 zinc finger fluorescence (zinc ejection) assay; format: biochemical; conditions: for zinc finger reactivity in the presence of glutathione (in words): 2 molar excess of glutathione; for Zinc Finger Reactivity RFU/min: average decrease in relative fluorescence units over 30 min; for inhibition at 2000 µM (stock): Table 8, GSH +: 2 mM compound, 2 h at 37° C. with 4 mM reduced glutathione, 30 min incubation, read-out: Zinc Finger Reactivity % Decrease
T1 construct: recombinant HIV-1 NCp7 protein
Method: Zinc finger reactivity was measured using a Zn specific fluorochrome, TSQ, N-(6-methoxy-8-quinolyl)-p-toluenesulfonamide, assay or a Trp37 zinc finger fluorescence assay. Fluorescent measurements of the Trp37 residue in the C-terminal finger of recombinant HIV-1 NCp7 protein were performed as described by Rice (1995) Science 270:1194-1197; Rice (1997) Antimicrob. Agents Chemother. 41:419-426. Measurement of Zn ejection from both fingers was measured using the Zn-selective fluorchrome probe TSQ (Molecular Probes, Eugene Oreg.) as described by Rice (1996) J. Med. Chem 39:3606-3616. […] Briefly, 50 nM NCp7 was treated with test compounds for 1 hour at RT in […] buffer containing 10% glycerol and 50 mM Tris-HCl (pH 7.5). Labeled oligomer (0.1 picomole, end labeled [^32P] was added in an equal volume of buffer containing 10% glycerol, 50 mM Tris-HCl (pH 7.5), 400 mM KCl and 40 mM MgCl2. The reaction was continued for 15 min at room temperature, and a total of […] (or ¼ of the total reaction volume) was separated on nondenaturing 4.5% polyacrylamide gels in 0.5× Tris-Borate electrophoresis buffer. NCp7-oligomer complexes were visualized by autoradiography.
Changes in the intrinsic fluorescence of aromatic protein moieties are commonly used to monitor a reaction which involves a change in protein conformation. In the present invention, fluorescence can be used to monitor the loss of metal ion from a zinc finger, e.g., the loss of zinc from a CCHC retroviral zinc finger protein, after contact with a thiolester of the invention. The intrinsic fluorescence of Trp37 in the second zinc finger of HIV-1 NC protein has been used to monitor nucleic acid binding and conformation of the zinc finger complex (see, Summers (1992) supra).
Zinc ejection is measured by the ability of compounds to chemically attack the cysteines in purified NCp7 protein resulting in a loss of fluorescence due to the. movement of the tryptophan 37 residue […] position on the protein. Zinc ejection is measured and expressed as either percent decrease in total fluorescence or decrease in relative fluorescence units per min during a 30 min assay (RFU/min). A thiolester is considered within the scope of the invention if any amount of zinc ejection is detected.

[2] = molecular target: T2, Virion-associated NCp7 proteins from cell-free HIV-1MN (Human immunodeficiency virus type 1 group M subtype B, UniProt P05888); assay: Virion NCp7 cross-linking (non-reducing Western blotting)
T2 construct: attack on the mature NCp7 retroviral zinc fingers in the cell-free virus; endogenous in cells
Method: The interaction of zinc finger inhibitors, such as the thiolesters of the invention, with cell-free virus can result in modification of intravirion NCp7 protein and loss of infectivity. Virion-associated NCp7 proteins from cell-free HIV-1MN were treated with thiolester compounds 44 and 45. They were also evaluated by non-reducing Western blotting using HIV-1 NCp7-specific antibodies. […] Cross-linking by compound 45 was due to formation of intermolecular disulfide bonds because reduction with 2-mercaptoethanol (β-ME) completely reversed the gel retardation.
(§1) Virion cross linking was performed as described by Rice (1995) Science 270:1194-1197 and Turpin (1997) Antiviral Chem. Chemother. 8:60-67. Briefly, highly purified HIV-1MN (11.8 μg total protein) was incubated for 2 hour with concentrations of compound. Virions were concentrated and residual compound was removed by centrifugation (18,000×g, 1 h, 4° C.). The viral pellet was solubilized in 0.5 M Tris-HCl, (pH 6.8), 50% glycerol, 8% SDS and 0.4% bromophenol blue and proteins resolved by Western blotting. Western blotting to detect the expression of HIV-1 proteins in U1 cells or virus pellets for virion cross-linking experiments was carried out as described by Turpin (1996) J. Virol. 70:6180-6189. Briefly, 50 μg of total cellular protein for U1 experiments or the. total virion pellet (11.8 μg total viral protein) for NCp7 cross linking studies was resolved on 4 to 20% polyacrylamide gels in SDS with Tris-Glycine (Novex, San Diego Calif.). Samples for reduced gels were boiled for 5 min in the presence of 5% β-ME prior to loading. Resolved proteins were electroblotted on to polyvinylidene difluoride (PVDF) membranes, and HIV-1 specific proteins were detected using a mixture of goat anti-HIV-1 NCp7 and p24 or anti-NCp7 for virion proteins alone (a kind gift of L. E. Henderson, AIDS Vaccine Program NCI-FCRDC, Frederick, Md.). Western blots were developed using standard chemiluminescence methodologies, as produced and described by Dupont-NEN, Wilmington, Del.
Purified concentrated retrovirus and antisera against the purified NC protein of the virus can be used to test the ability of a specific compound to penetrate the virus and react with the NC protein by forming disulfide complexes in the core of the virus. Compound are mixed with the whole retrovirus under reaction conditions appropriate for the compound. The virus is then removed from the reagent by centrifugation and disrupted in, e.g., standard SDS-PAGE sample buffer with (reduced) and without (non-reduced) 2-mercaptoethanol. The viral proteins are then separated by standard SDS-PAGE and the sample examined for the presence or absence of the monomeric zinc finger protein in the non-reduced sample. Depending upon the virus used in the experiment and the conditions of electrophoresis, the zinc finger protein can be visualized by protein staining methods, or by immuno-blot methods. Compounds which react with the zinc finger protein by attacking the zinc finger complexes and forming disulfide cross-linked products inactivate the virus. Thus, compounds of interest (i.e., those which cause cross-linking), including the thiolesters of the invention, reduce the amount of monomeric zinc finger protein detected.

U1 cells = assay: Cell viability of TNFα-induced U1 cells; format: cell-based
Method: (§2) Thiolester compounds were also tested for their ability to. inhibit HIV-1 replication in TNFα-induced U1 and ACH-2 cells. U1 cells were induced with 5 ng/ml of TNFα in the presence of various concentrations of the thiolesters 44, 45 or 47. Forty-eight hours later the cultures were characterized for virus p24 antigen production and cell viability. […] Compound 44 killed 60% of the cells at 200 μM. […] Precursor processing evaluation performed as described by Turpin (1997) Antiviral Chem. Chemother. 8:60-69. Thus, thiolester PATEs initiate intracellular disulfide cross-linking of precursor polyproteins during late phase virus assembly and mediate a direct virucidal effect via an attack on the mature NCp7 retroviral zinc fingers in the cell-free virus.

Pr55gag precursor = molecular target: T3, Pr55gag precursor (Human immunodeficiency virus type 1 group M subtype B, UniProt P03347); assay: Gag precursor cross-linking and processing in U1 cells (Western blotting); format: cell-based, HIV-1; conditions: TNFα-induced U1 cells
T3 construct: endogenous in cells; host or cells: U1 cells (latently HIV-1 infected), induced with TNFα
Method: as §2
as §1, with “Western blots were developed using standard chemiluminescence methodologies, as produced and described by Dupont-NEN, Wilmington, Del.” left out

**Q.** How did the “zinc finger reactivity (in words)” value [1] turn out when `CC(=O)NS(=O)(=O)c1ccc(NC(=O)c2ccccc2SC(=O)CCCCBr)cc1` [Compound 44, N-[2-(5-bromovaleroylthio)benzoyl]sulfacetamide] was run?
**A.** The value was “promoted metal ion (zinc) ejection”.

**Q.** What about the “zinc finger reactivity in the presence of glutathione (in words)” value [1] of the same molecule?
**A.** Its value is “maintained the capacity to attack the cysteine thiols”.

**Q.** And the “Zinc Finger Reactivity RFU/min” value ([1]; Table 5)?
**A.** The value was 1.8 RFU/min.

**Q.** What about the “Zinc Finger Reactivity RFU/min” value ([1]; Table 6) of the same molecule?
**A.** Its value is 1.8 RFU/min.

**Q.** What about the inhibition at 2000 µM (stock) [1] of the same molecule?
**A.** Its inhibition at 2000 µM (stock) is 28%.

**Q.** And the “intravirion NCp7 cross-linking (in words)” value [2]?
**A.** Its value is “very poor cross-linking agent”.

**Q.** And the cells killed (U1 cells; U1 cells, at 200 μM)?
**A.** Its cells killed is 60%.

**Q.** What about the “cellular toxicity in U1 cells” value (U1 cells; high test dose of 100 μM) of the same molecule?
**A.** Its value is “No cellular toxicity”.

**Q.** What about the “cross-linking and processing of viral precursor polyproteins (in words)” value (Pr55gag precursor) of the same molecule?
**A.** Its value is “induced β-ME reversible alterations in the mobility of zinc finger containing HIV-1 precursor proteins at a intermediate level”.

**Q.** How did the “zinc finger reactivity (in words)” value [1] turn out when `CC(=O)NS(=O)(=O)c1ccc(NC(=O)c2ccccc2SC(=O)CCCC[n+]2ccccc2)cc1` [Compound 45, N-[2-(5-pyridinio-valeroylthio)benzoyl]sulfacetamide bromide] was run?
**A.** The value was “promoted metal ion (zinc) ejection”.

**Q.** What about the “zinc finger reactivity / zinc ejection rate” value [1] of the same molecule?
**A.** The value was 3.6 RFU/min.

**Q.** What about the “zinc finger reactivity in the presence of glutathione (in words)” value [1] of the same molecule?
**A.** Its value is “maintained the capacity to attack the cysteine thiols”.

**Q.** What about the “Zinc Finger Reactivity RFU/min” value ([1]; Table 5) of the same molecule?
**A.** Its value is 3.6 RFU/min.

**Q.** And the “Zinc Finger Reactivity RFU/min” value ([1]; Table 6)?
**A.** Its value is 3.6 RFU/min.

**Q.** What about the inhibition at 2000 µM (stock) [1] of the same molecule?
**A.** Its inhibition at 2000 µM (stock) is 36.9%.

**Q.** And the “Zinc Finger Reactivity RFU/min” value ([1]; Table 10)?
**A.** Its value is 3.6 RFU/min.

**Q.** And the “intravirion NCp7 cross-linking (in words)” value [2]?
**A.** The value was “extensive cross-linking of NCp7; also recorded: strong cross-linker of intravirion NCp7”.

**Q.** What about the “cellular toxicity in U1 cells” value (U1 cells; high test dose of 100 μM) of the same molecule?
**A.** The value was “No cellular toxicity”.

**Q.** And the “cellular toxicity in U1 cells” value (U1 cells; higher dose testing (300 μM))?
**A.** The value was “no toxicity”.

**Q.** And the “cross-linking and processing of viral precursor polyproteins (in words)” value (Pr55gag precursor)?
**A.** The value was “induced cross-linking of viral precursor polyproteins and prevented processing of those precursors”.

**Q.** What does the source list for `O=C(CCCC[n+]1ccccc1)Sc1ccccc1C(=O)Nc1ccc(S(=O)(=O)c2ccc([N+](=O)[O-])cc2)cc1` [Compound 47]?
**A.** zinc finger reactivity (in words) [1]: promoted metal ion (zinc) ejection; zinc finger reactivity in the presence of glutathione (in words) [1]: maintained the capacity to attack the cysteine thiols; Zinc Finger Reactivity RFU/min ([1]; Table 6): 4.1 RFU/min; inhibition at 2000 µM (stock) [1]: 21.1%; intravirion NCp7 cross-linking (in words) [2]: did not effectively initiate NCp7 cross-linking; cellular toxicity in U1 cells (U1 cells; high test dose of 100 μM): No cellular toxicity; cellular toxicity in U1 cells (U1 cells; higher dose testing (300 μM)): no toxicity; cross-linking and processing of viral precursor polyproteins (in words) (Pr55gag precursor): induced cross-linking of viral precursor polyproteins and prevented processing of those precursors

**Q.** With `O=C(O)CCCC[n+]1ccccc1.[Br-]` [Compound 53, 5-pyridiniovaleric acid] as the molecule, how does the “zinc finger reactivity / zinc ejection rate” value [1] read?
**A.** Its value is 4 RFU/min.

**Q.** And the “Zinc Finger Reactivity RFU/min” value ([1]; Table 6)?
**A.** The value was 4 RFU/min.

**Q.** And the “intravirion NCp7 cross-linking (in words)” value [2]?
**A.** The value was “Neither intravirion cross-linkage of NCp7 nor virucidal activity were detected”.
